The record followed here is ChEMBL document CHEMBL1153300, “Identification and SAR of novel diaminopyrimidines. Part 2: The discovery of RO-51, a potent and selective, dual P2X(3)/P2X(2/3) antagonist for the treatment of pain” (Bioorg Med Chem Lett, 2009).

One series has as its target T1, P2X purinoceptor 3 (Rattus norvegicus, UniProt P49654).
T1 sequence (P49654 whole entry): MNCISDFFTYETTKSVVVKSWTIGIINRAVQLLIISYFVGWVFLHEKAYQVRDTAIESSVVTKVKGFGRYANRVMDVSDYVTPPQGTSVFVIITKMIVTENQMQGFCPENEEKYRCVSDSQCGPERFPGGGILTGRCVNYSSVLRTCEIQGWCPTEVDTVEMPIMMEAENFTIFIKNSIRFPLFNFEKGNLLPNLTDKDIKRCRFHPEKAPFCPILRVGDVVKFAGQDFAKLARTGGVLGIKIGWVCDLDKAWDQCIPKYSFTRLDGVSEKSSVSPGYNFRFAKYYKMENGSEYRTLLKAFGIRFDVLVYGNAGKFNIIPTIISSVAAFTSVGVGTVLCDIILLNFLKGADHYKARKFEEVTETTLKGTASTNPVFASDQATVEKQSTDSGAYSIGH
Nature of the series: Antagonist activity at rat P2X3 receptor expressed in CHO cells by FLIPR. It is filed as functional, cell-based.

The target in series [1] is T2, P2X2/P2X3 heterotrimeric receptor (Homo sapiens, UniProt P56373+Q9UBL9).
T2 sequence (Q9UBL9 whole entry): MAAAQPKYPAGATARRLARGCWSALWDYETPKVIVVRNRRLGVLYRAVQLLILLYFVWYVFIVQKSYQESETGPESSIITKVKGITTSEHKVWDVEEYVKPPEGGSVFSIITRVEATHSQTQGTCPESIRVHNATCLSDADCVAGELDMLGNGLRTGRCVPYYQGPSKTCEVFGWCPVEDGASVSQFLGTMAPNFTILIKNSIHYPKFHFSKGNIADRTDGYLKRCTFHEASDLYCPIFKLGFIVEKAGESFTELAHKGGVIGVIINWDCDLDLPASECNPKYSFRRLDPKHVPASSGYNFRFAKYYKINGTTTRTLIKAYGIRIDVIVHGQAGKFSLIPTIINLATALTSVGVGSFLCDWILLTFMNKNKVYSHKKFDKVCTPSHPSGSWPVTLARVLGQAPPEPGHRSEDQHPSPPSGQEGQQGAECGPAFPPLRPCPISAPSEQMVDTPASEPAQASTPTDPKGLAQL
T2 sequence (P56373 whole entry): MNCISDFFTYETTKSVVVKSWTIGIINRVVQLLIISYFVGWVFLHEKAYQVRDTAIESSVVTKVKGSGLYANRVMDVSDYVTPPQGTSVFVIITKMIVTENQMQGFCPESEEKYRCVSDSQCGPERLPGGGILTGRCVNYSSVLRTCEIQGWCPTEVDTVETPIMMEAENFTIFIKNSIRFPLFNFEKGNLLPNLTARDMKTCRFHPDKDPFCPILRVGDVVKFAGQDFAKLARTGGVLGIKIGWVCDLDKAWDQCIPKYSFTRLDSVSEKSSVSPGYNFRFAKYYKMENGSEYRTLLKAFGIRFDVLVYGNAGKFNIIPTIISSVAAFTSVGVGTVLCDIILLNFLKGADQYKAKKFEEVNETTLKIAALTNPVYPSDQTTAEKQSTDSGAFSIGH
The series can be described thus: Antagonist activity at human P2X2/3 receptor expressed in 1321n1c cells by FLIPR. It is filed as functional, cell-based.

The nature of series [2]: Tmax in rat at 2 mg/kg, iv administered as single dose. It is filed as ADME, organism-based. The arrangement: dose 2 mg/kg, route intravenous. The conditions noted are these: in vivo.
Series [3] can be described thus: Half life in dog. It counts as ADME, organism-based, Canis lupus familiaris. The conditions noted are these: in vivo.
Series [4] can be described thus: Oral bioavailability in dog. It counts as ADME, organism-based, Canis lupus familiaris. The conditions noted are these: in vivo.
The nature of series [5]: Tmax in rat at 2 mg/kg, po administered as single dose. On the set-up: dose 2 mg/kg, route oral. The note with it: in vivo. It is filed as ADME, organism-based.
The species entered for a further series is Canis familiaris. The series can be described thus: Clearance in dog. It counts as ADME, organism-based, Canis lupus familiaris. The note with it: in vivo.
Series [6] is described as follows: AUC in rat at 2 mg/kg, po administered as single dose. It is filed as ADME, organism-based. On the set-up: dose 2 mg/kg, route oral. The note with it: plasma.
Series [7] can be described thus: Half life in rat at 2 mg/kg, iv administered as single dose. It is filed as ADME, organism-based. The arrangement: dose 2 mg/kg, route intravenous. The note with it: in vivo.
Series [8] in a line: Apparent permeability from apical to basolateral side of human Caco-2 cells. It counts as ADME, cell-based. (In general: Caco-2 monolayers are a common model of the intestinal barrier.)
A further series relates to Rattus norvegicus. The series can be described thus: Clearance in rat at 2 mg/kg, iv administered as single dose. It counts as ADME, organism-based. The arrangement: dose 2 mg/kg, route intravenous. The note with it: in vivo.
Series [9] can be described thus: Cmax in rat at 2 mg/kg, iv administered as single dose. It counts as ADME, organism-based. The arrangement: dose 2 mg/kg, route intravenous. The note with it: in vivo.
Series [10] in a line: Half life in rat at 2 mg/kg, po administered as single dose. It is filed as ADME, organism-based. On the set-up: dose 2 mg/kg, route oral. The note with it: in vivo.
A short description of series [11]: Oral bioavailability in rat at 2 mg/kg administered as single dose. The conditions noted are these: in vivo. It is filed as ADME, organism-based.
A short description of series [12]: Cmax in rat at 2 mg/kg, po administered as single dose. The note with it: in vivo. It counts as ADME, organism-based. On the set-up: dose 2 mg/kg, route oral.
A further series concerns the target P2X purinoceptor 5 (Homo sapiens, UniProt Q93086). The series can be described thus: Antagonist activity at P2X5 receptor up to 10 uM. It is filed as functional.
The nature of series [13]: AUC in rat at 2 mg/kg, iv administered as single dose. It counts as ADME, organism-based. The arrangement: dose 2 mg/kg, route intravenous. The conditions noted are these: plasma.

SMILES strings stand for the structures.

P2X purinoceptor 5, sequence (Q93086 whole entry): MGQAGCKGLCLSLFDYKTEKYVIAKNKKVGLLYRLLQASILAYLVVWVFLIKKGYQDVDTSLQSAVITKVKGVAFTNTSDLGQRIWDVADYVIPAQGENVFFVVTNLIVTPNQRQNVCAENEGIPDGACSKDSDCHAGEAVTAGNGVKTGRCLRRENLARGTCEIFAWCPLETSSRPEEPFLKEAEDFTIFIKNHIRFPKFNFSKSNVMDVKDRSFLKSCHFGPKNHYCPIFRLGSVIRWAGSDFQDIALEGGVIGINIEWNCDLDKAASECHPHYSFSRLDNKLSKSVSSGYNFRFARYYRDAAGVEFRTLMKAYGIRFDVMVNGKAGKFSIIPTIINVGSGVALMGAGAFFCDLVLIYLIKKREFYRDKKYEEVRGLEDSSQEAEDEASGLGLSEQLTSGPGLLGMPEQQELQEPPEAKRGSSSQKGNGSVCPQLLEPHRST

With `COc1cc(C(C)C)c(Oc2cnc(NC3CCN(S(C)(=O)=O)CC3)nc2N)cc1I`, the IC50 at P2X purinoceptor 3 (read-out: pIC50 (converted)) is 100 nM; in series [1] (read-out: pIC50 (converted)) it was 316 nM.

Consider `COc1cc(C(C)C)c(Oc2cnc(NCCO)nc2N)cc1I`, for which the IC50 in series [1] (read-out: pIC50 (converted)) was 15.8 nM.

On to `COc1cc(C(C)C)c(Oc2cnc(NCCN(C)C)nc2N)cc1I`, for which the results for the IC50 (on P2X purinoceptor 3 (read-out: pIC50 (converted)); in [1] (read-out: pIC50 (converted))) were 158 nM and 251 nM, respectively.

With `COc1cc(C(C)C)c(Oc2cnc(NCCN3CCOCC3)nc2N)cc1I`, the IC50 at P2X purinoceptor 3 (read-out: pIC50 (converted)) is 158 nM; in series [1] (read-out: pIC50 (converted)) it was 398 nM.

As for `COc1cc(C(C)C)c(Oc2cnc(NCC(F)(F)F)nc2N)cc1I`, the IC50 at P2X purinoceptor 3 (read-out: pIC50 (converted)) was 79.4 nM; in series [1] (read-out: pIC50 (converted)), 200 nM.

Regarding `COc1cc(C(C)C)c(Oc2cnc(NC(CO)CO)nc2N)cc1I`, the time of peak concentration (Tmax) in series [2] was 0.167 h; in series [5], 0.833 h. Moreover, the half-life in series [3] is 3.88 h; in [7], 1.07 h; in [10] it was 1.52 h. Besides, the bioavailability in [4] was 79%; in series [11] it was 48%. Also, the clearance was determined as 4.65 mL/min/kg in the series listed under Canis familiaris and 71.9 mL/min/kg in the series on Rattus norvegicus. The results for the AUC in [6] and in series [13] were 237 ng·h/mL and 495 ng·h/mL, respectively. Besides, the Papp A→B in series [8] stood at 9.43 ×10⁻⁶ cm/s. The results for the Cmax in [9] and in [12] were 554 ng/mL and 104 ng/mL, respectively. Moreover, the IC50 against P2X purinoceptor 5 was > 10000 nM.

With `COc1cc(C(C)C)c(Oc2cnc(NC(C)(C)CO)nc2N)cc1I`, the IC50 in series [1] (read-out: pIC50 (converted)) is 794 nM.

`COc1cc(C(C)C)c(Oc2cnc(N(C)C)nc2N)cc1I`: the IC50 (at P2X purinoceptor 3 (read-out: pIC50 (converted)); in series [1] (read-out: pIC50 (converted))) was > 10000 nM each time.

For `COc1cc(C(C)C)c(Oc2cnc(N)nc2N)cc1I`, the time to peak (Tmax) in series [2] amounted to 0.083 h; in series [5], 1.33 h. Moreover, the half-life in [3] is 1.5 h; in series [7], 0.94 h; in series [10], 2.09 h. Further, the bioavailability in series [4] amounted to 72%; in series [11], 39%. Also, the IC50 is 13 nM on P2X purinoceptor 3 (read-out: IC50), 25 nM in [1] (read-out: IC50) and 39.8 nM in [1] (read-out: pIC50 (converted)). For the same compound, the figures for the clearance in the series filed under Canis familiaris and in the series on Rattus norvegicus were 13 mL/min/kg and 52.8 mL/min/kg, respectively. Also, the values for the area under the curve (AUC) in series [6] and in series [13] were 240 ng·h/mL and 628 ng·h/mL, respectively. The Cmax in series [9] came out at 589 ng/mL; in series [12], 64.3 ng/mL.

In general, Tmax refers to the time at which the peak concentration occurs. The term half-life denotes the time needed for the level to fall by half in the phase considered. The bioavailability is dose-corrected exposure relative to a reference, in per cent. A high value points to good availability. In general, clearance refers to the volume of plasma or blood freed of the substance per unit of time. Higher therefore signals a high capacity for elimination. Broadly, the AUC is the area under the concentration-time curve, a measure of exposure. The low end stands for low exposure, the high end for high exposure. As usually defined, the Papp A→B is how fast a substance crosses the layer from the apical side. By Cmax is commonly meant the peak of the concentration-time curve.
